The values that follow come from patent US20200030355A1, “COMBINATION THERAPY FOR TREATING CANCER” (Epizyme, Inc., priority 2014, published 2020).

The subject of one test is MOLM-13 (MLL-AF9). In words: Compound A2 7-day pre-treatment, then Compound A2 and Compound 1 for 3 days, CellTiter-Glo (Example 9). The format is cell-based, human. The following applies: Compound A2 7 days, then both for 3 days, n=2. As to the method:
(§1) At the endpoint, cell viability was measured via ATP content using CellTiter-Glo®.

The next test concerns SKM-1 (non-MLL-r). The test is described as above. The format is cell-based, human. The following applies: Compound A2 7 days, then both for 3 days, n=2. On the procedure: as §1
The target of another test is ERK1 (Homo sapiens, UniProt P27361). In words: ERK kinase activity inhibition. The format is biochemical. On the procedure: (§2) Compound 1 is a potent inhibitor of the kinase activities of ERK1 and ERK2. In some embodiments, Compound 1 inhibits one or both of ERK1 and ERK2 with an IC50 of about 10 to about 20 nM.
ERK1, sequence (P27361 whole entry): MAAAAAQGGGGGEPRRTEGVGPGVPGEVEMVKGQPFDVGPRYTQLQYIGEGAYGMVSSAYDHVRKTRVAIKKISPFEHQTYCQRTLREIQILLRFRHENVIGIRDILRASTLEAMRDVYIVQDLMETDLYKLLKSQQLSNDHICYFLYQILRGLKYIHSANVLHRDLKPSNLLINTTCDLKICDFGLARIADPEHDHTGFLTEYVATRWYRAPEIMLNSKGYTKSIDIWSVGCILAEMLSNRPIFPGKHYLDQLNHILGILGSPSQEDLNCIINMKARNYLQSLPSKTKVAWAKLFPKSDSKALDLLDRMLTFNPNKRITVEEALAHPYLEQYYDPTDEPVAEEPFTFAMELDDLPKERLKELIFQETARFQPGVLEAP
(§3) The activity of Compound 1, and pharmaceutically acceptable salts thereof, as an inhibitor of one or both of an ERK1 and ERK2 kinase, or a mutant thereof, may be assayed in vitro, in vivo or in a cell line. In vitro assays include assays that determine inhibition of downstream phosphorylation, changes in gene expression, subsequent functional markers and consequences, and/or kinase activity of one or both of activated ERK1 and ERK2 kinase, or a mutant thereof. Alternate in vitro assays quantitate the ability of the test compound to bind to one or both of ERK1 and ERK2. Test compound binding may be measured by radiolabeling the test compound prior to binding, isolating one or both of the compound/ERK1 complex and the compound/ERK2 complex, and determining the amount of radiolabel bound. Alternatively, test compound binding may be determined by running a competition experiment where test compounds are incubated with one or both of ERK1 and ERK2 kinase bound to known radioligands. […]

The next test concerns the target ERK2 (Homo sapiens, UniProt P28482). In words: ERK kinase activity inhibition. The format is biochemical. As to the method: as §2, §3
The next test deals with 258 kinases. In words: Kinase selectivity analysis. The format is biochemical. The following applies: analysis of 258 kinases. On the procedure: as §2
For test [1], the system named is BRAF-mutant cancer cell lines. In words: Cancer cell panel screening, anti-proliferative activity. The following applies: 25 of 27 BRAF-mutant cancer cell lines tested. The format is cell-based. The source says: (§4) Bioinformatic analyses indicate that tumors with activating mutations of BRAF are particularly sensitive to Compound 1. […] In the same cancer cell panel screening, 28 of 37 (76%) KRAS-mutant cancer cell lines were sensitive to Compound 1. […] This is of particular importance as resistance to BRAF inhibition has been commonly observed in human patients. […] Without wishing to being bound by any particular theory, it is believed that inhibitors of one or both of ERK1 and ERK2, or a mutant thereof, such as Compound 1, or pharmaceutically acceptable salts thereof, provide effective salvage therapy.

The test system of test [2] is KRAS-mutant cancer cell lines. The test is described as above. The format is cell-based. The following applies: 28 of 37 KRAS-mutant cancer cell lines.
From the text: as §4

Test [3] concerns A375 melanoma cells that have acquired in vitro resistance to BRAF and MEK inhibition. In words: Inhibitory activity against resistant melanoma cells. The format is cell-based.
From the text: as §4

Structures are written as SMILES.

ERK2, sequence (P28482 whole entry): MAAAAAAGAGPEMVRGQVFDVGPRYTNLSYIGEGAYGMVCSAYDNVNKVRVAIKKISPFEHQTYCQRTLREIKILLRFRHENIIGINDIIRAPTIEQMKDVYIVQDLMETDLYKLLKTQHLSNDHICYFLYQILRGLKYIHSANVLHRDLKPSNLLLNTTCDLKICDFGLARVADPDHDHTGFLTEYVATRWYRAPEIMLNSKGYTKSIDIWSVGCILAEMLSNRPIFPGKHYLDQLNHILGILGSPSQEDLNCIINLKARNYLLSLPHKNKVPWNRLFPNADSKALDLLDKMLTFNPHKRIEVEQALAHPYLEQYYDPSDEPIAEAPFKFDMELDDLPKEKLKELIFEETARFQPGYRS

Regarding `C=CC(=O)Nc1cc(C)ccc1Nc1nc(Nc2cc(OC)ncc2C)ncc1C(F)(F)F` [Compound 1, N-(2-((2-((2-methoxy-5-methylpyridin-4-yl)amino)-5-(trifluoromethyl)pyrimidin-4-yl)amino)-5-methylphenyl)acrylamide], the “Combination (Compound A2 and Compound 1)” value in the test with MOLM-13 (MLL-AF9) is recorded as “Synergy”; in the test on SKM-1 (non-MLL-r), “No benefit”. Further, the IC50 against ERK1 and on ERK2 was 10 to 20 nM each time. Also, in the test on 258 kinases, the Kinase selectivity profile entry is reported as “good overall kinase selectivity profile”. Further, in test [1], the “Cell lines sensitive to Compound 1 inhibition (GI50 <1 μM)” value turned out to be 93%. Besides, in test [2], the “Cell lines sensitive to Compound 1” value is reported as 76%. Further, in test [3], the “Activity against resistant A375 melanoma cells” value is “inhibitory activity”.
